Assay results from ChEMBL document CHEMBL3758163, “Extended structure-activity study of thienopyrimidine-based EGFR inhibitors with evaluation of drug-like properties” (Eur J Med Chem, 2016).

How the values were obtained:
[1] = biological target: T1, Serine/threonine-protein kinase Nek1 (Homo sapiens) (UniProt Q96PY6); assay: Inhibition of NEK1 (unknown origin) at 500 nM
T1 sequence (whole entry): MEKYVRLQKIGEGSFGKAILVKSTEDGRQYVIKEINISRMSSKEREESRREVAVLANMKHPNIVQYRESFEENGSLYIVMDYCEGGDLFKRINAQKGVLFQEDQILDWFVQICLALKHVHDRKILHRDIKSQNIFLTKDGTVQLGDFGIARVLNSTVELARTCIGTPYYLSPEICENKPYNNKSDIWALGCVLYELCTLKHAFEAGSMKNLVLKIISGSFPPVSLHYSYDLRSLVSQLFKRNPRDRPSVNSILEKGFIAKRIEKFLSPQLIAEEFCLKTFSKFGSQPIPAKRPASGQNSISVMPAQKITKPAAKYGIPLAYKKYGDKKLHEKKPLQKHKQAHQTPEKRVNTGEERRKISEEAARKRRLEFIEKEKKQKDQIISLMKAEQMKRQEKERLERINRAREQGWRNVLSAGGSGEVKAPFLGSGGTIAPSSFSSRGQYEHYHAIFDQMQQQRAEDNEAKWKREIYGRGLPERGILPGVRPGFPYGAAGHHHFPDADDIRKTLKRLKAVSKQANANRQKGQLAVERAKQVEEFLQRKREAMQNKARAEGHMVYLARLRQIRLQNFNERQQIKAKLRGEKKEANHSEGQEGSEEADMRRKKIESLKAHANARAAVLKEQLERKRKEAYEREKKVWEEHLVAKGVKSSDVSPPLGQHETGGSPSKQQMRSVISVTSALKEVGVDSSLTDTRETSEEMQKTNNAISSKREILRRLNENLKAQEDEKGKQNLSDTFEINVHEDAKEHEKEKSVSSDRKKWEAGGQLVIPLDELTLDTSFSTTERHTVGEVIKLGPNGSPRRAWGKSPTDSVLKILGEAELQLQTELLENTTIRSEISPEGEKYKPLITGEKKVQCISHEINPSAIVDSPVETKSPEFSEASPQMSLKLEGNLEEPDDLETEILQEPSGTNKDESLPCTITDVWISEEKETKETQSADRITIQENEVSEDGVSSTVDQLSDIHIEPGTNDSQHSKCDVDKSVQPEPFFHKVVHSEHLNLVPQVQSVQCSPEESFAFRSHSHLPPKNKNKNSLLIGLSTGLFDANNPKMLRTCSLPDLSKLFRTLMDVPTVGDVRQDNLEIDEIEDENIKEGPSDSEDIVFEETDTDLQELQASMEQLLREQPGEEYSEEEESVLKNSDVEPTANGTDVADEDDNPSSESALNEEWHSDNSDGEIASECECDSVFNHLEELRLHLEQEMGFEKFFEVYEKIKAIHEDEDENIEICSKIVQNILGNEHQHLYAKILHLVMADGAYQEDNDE

[2] = biological target: Mast/stem cell growth factor receptor Kit (Homo sapiens) (UniProt P10721); assay: Inhibition of KIT (unknown origin) at 500 nM
[3] = biological target: Insulin-like growth factor 1 receptor (Homo sapiens) (UniProt P08069); assay: Inhibition of IGF1R (unknown origin) at 500 nM
[4] = biological target: Proto-oncogene tyrosine-protein kinase Src (Homo sapiens) (UniProt P12931); assay: Inhibition of SRC (unknown origin) at 500 nM
[5] = biological target: Dual specificity mitogen-activated protein kinase kinase 1 (Homo sapiens) (UniProt Q02750); assay: Inhibition of MAP2K1 (unknown origin) at 500 nM
[6] = biological target: Serine/threonine-protein kinase pim-2 (Homo sapiens) (UniProt Q9P1W9); assay: Inhibition of PIM2 (unknown origin) at 500 nM
[7] = biological target: MAP kinase-activated protein kinase 2 (Homo sapiens) (UniProt P49137); assay: Inhibition of MAPKAPK2 (unknown origin) at 500 nM
[8] = biological target: Platelet-derived growth factor receptor alpha (Homo sapiens) (UniProt P16234); assay: Inhibition of PDGFRA (unknown origin) at 500 nM
[9] = biological target: Protein kinase C alpha type (Homo sapiens) (UniProt P17252); assay: Inhibition of PRKCA (unknown origin) at 500 nM
[10] = biological target: Tyrosine-protein kinase SYK (Homo sapiens) (UniProt P43405); assay: Inhibition of SYK (unknown origin) at 500 nM
[11] = biological target: Tyrosine-protein kinase Fyn (Homo sapiens) (UniProt P06241); assay: Inhibition of FYN (unknown origin) at 500 nM
[12] = biological target: cAMP-dependent protein kinase catalytic subunit alpha (Homo sapiens) (UniProt P17612); assay: Inhibition of PRKACA (unknown origin) at 500 nM
[13] = biological target: Mitogen-activated protein kinase 14 (Homo sapiens) (UniProt Q16539); assay: Inhibition of MAPK14 (unknown origin) at 500 nM
[14] = biological target: Platelet-derived growth factor receptor beta (Homo sapiens) (UniProt P09619); assay: Inhibition of PDGFRB (unknown origin) at 500 nM
[15] = biological target: Tyrosine-protein kinase Yes (Homo sapiens) (UniProt P07947); assay: Inhibition of YES1 (unknown origin) at 500 nM
[16] = biological target: Serine/threonine-protein kinase B-raf (Homo sapiens) (UniProt P15056); assay: Inhibition of BRAF (unknown origin) at 500 nM
[17] = biological target: T2, Serine/threonine-protein kinase Chk1 (Homo sapiens) (UniProt O14757); assay: Inhibition of CHEK1 (unknown origin) at 500 nM
T2 sequence (whole entry): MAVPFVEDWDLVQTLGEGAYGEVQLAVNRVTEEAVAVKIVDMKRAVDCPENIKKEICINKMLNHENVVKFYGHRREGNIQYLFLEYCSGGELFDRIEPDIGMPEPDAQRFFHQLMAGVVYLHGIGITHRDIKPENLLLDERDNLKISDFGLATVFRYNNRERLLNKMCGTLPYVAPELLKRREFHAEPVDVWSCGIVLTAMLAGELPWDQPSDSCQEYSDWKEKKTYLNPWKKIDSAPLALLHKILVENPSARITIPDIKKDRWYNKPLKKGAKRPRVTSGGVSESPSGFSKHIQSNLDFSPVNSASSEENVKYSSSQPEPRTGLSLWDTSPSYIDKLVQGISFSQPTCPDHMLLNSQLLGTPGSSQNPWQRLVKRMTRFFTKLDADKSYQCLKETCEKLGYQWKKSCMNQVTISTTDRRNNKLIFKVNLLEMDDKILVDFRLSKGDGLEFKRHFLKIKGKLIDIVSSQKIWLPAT

Platelet-derived growth factor receptor alpha (Homo sapiens), sequence (P16234 whole entry): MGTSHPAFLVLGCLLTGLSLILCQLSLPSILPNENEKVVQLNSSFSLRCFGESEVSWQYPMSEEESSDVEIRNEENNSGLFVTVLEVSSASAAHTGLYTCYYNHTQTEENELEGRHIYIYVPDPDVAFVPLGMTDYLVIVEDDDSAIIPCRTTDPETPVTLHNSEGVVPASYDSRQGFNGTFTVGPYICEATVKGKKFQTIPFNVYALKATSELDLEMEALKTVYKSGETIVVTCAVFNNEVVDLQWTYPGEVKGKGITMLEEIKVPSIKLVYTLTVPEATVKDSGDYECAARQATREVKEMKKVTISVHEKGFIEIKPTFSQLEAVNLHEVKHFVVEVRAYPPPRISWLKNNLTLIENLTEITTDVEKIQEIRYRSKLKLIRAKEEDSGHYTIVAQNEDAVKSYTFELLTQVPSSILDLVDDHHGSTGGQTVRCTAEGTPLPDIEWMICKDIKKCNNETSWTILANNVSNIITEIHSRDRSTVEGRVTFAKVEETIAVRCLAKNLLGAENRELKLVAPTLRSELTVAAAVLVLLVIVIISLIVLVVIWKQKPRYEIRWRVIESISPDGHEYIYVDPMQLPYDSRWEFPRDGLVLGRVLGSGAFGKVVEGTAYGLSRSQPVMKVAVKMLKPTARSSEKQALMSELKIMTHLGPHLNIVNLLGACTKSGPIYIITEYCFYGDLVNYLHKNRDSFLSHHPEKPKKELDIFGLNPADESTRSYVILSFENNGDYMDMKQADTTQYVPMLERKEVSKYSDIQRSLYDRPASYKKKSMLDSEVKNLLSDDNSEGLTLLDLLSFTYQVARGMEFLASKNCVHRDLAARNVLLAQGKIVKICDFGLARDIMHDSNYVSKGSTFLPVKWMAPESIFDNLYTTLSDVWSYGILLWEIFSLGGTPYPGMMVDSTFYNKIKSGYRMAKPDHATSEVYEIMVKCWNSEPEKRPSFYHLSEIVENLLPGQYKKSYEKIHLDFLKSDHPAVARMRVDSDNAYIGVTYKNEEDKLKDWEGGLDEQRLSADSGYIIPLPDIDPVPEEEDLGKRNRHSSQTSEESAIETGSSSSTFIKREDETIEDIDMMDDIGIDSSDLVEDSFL
Serine/threonine-protein kinase pim-2 (Homo sapiens), sequence (Q9P1W9 whole entry, looked up): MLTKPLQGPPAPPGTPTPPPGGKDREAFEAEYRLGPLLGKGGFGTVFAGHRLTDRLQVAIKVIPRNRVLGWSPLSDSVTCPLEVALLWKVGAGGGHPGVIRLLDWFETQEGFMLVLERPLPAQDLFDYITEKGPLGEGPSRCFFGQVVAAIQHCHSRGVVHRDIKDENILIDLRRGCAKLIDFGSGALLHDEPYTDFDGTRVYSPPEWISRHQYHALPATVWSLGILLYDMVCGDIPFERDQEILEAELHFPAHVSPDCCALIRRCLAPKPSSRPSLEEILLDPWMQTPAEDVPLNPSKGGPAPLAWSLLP
Mast/stem cell growth factor receptor Kit (Homo sapiens), sequence (P10721 whole entry): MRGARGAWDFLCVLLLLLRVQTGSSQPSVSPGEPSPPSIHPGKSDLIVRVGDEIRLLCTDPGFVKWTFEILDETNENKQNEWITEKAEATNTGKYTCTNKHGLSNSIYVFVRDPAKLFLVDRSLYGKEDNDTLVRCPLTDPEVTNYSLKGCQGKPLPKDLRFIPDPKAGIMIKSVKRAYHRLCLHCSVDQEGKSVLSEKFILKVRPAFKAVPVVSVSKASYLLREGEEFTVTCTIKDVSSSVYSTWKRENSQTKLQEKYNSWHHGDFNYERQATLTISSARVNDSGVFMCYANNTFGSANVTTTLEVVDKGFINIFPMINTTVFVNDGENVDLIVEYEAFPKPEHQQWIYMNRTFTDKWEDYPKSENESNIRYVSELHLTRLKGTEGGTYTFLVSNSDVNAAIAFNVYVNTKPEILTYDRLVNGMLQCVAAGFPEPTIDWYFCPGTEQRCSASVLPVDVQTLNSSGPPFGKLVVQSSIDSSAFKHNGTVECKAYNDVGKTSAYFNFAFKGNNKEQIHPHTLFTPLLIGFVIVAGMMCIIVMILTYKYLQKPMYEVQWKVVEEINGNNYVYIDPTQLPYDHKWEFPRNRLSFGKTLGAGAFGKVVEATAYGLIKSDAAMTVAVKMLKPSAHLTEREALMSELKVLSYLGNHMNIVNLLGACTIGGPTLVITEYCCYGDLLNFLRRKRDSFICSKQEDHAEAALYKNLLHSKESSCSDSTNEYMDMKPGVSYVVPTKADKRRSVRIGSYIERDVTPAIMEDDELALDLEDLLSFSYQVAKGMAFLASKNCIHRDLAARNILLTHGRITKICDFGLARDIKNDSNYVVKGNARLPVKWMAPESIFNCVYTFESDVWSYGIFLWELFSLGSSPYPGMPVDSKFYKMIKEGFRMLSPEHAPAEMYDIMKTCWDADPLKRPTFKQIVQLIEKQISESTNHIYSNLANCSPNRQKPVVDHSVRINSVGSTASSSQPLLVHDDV
Proto-oncogene tyrosine-protein kinase Src (Homo sapiens), sequence (P12931 2-536 limits assumed): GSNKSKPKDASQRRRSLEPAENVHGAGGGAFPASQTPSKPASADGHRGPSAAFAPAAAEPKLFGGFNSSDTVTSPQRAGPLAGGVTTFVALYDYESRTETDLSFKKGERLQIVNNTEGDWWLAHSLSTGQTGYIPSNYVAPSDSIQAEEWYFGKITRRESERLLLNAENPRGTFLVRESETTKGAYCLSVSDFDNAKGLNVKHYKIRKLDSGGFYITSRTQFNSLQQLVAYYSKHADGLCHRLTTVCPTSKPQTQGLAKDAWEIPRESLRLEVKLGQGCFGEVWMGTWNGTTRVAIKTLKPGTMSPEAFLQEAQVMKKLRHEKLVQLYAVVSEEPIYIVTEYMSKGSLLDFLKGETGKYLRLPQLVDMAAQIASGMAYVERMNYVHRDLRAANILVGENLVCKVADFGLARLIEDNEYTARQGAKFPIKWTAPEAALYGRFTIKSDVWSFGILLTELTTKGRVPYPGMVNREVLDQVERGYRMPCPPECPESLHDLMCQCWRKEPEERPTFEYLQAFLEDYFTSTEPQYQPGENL
Tyrosine-protein kinase Fyn (Homo sapiens), sequence (P06241 2-537 limits assumed): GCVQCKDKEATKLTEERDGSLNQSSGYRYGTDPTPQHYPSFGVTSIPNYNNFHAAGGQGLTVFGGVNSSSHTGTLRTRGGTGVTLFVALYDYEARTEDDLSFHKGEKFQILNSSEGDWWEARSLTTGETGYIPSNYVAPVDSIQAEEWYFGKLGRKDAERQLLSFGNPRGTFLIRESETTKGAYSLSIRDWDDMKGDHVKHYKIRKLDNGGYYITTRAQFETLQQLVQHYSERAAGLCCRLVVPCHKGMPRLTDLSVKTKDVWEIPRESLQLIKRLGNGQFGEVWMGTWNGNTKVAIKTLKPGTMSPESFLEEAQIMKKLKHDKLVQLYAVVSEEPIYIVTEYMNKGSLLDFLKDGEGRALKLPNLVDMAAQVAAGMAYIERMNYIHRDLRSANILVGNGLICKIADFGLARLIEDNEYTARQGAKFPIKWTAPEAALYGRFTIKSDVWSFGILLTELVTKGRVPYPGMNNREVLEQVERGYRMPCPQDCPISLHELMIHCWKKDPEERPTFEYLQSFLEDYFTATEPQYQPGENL
Dual specificity mitogen-activated protein kinase kinase 1 (Homo sapiens), sequence (Q02750 whole entry): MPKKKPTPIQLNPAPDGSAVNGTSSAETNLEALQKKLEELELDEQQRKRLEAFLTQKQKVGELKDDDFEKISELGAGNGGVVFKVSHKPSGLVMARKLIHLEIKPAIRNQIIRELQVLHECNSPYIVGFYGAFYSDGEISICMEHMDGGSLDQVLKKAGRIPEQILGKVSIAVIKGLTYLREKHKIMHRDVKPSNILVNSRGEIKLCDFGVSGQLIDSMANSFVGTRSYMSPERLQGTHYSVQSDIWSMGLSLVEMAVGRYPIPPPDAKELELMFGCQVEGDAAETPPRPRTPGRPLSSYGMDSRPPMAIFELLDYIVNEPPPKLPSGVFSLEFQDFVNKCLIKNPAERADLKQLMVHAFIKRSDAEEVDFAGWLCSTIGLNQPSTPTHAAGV
MAP kinase-activated protein kinase 2 (Homo sapiens), sequence (P49137 whole entry, looked up): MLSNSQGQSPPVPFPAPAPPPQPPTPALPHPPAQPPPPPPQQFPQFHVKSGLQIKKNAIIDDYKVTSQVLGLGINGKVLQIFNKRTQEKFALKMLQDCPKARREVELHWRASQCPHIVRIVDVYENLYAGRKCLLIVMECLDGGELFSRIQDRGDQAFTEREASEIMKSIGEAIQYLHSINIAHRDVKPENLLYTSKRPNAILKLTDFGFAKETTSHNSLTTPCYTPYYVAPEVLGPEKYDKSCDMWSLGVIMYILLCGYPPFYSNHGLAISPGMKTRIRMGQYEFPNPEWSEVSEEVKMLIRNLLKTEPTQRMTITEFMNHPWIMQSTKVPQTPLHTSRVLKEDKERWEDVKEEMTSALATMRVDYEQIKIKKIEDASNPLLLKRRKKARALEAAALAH

| SMILES | inhibition [1] | inhibition [2] | inhibition [3] | inhibition [4] | inhibition [5] | inhibition [6] | inhibition [7] | inhibition [8] | inhibition [9] | inhibition [10] | inhibition [11] | inhibition [12] | inhibition [13] | inhibition [14] | inhibition [15] | inhibition [16] | inhibition [17] |
| --- | --- | --- | --- | --- | --- | --- | --- | --- | --- | --- | --- | --- | --- | --- | --- | --- | --- |
| COc1cc(C(N)=O)ccc1-c1cc2c(N[C@H](CO)c3ccccc3)ncnc2s1 | 3% | -9% | -9% | 20% | 10% | 11% | -7% | 0% | -4% | 17% | 16% | -5% | 6% | 8% | 40% | 25% | – |
| C[C@@H](Nc1ncnc2sc(-c3ccc(C(=O)NCCN(C)C)cc3)cc12)c1ccccc1 | 4% | -5% | -6% | 18% | 6% | 3% | – | 15% | 0% | 7% | 19% | -6% | 7% | 6% | 23% | 23% | -6% |
| C#Cc1cccc(Nc2ncnc3sc(-c4ccc(CO)cc4OC)cc23)c1 | -6% | – | -8% | 15% | 3% | 11% | – | -9% | -7% | 16% | 0% | -1% | – | 13% | 8% | 16% | -3% |
| COc1cc(CO)ccc1-c1cc2c(N[C@H](CO)c3ccccc3)ncnc2s1 | 13% | 1% | – | 9% | 18% | 1% | 8% | 1% | – | 10% | 12% | 1% | 13% | 1% | 37% | 20% | 15% |
| COc1cc(CO)ccc1-c1cc2c(Nc3ccc(F)c(Cl)c3)ncnc2s1 | – | 1% | -3% | 14% | 12% | 6% | 3% | 5% | 2% | 11% | 5% | 8% | 6% | -3% | 14% | 3% | – |
| C#Cc1cccc(Nc2ncnc3cc(OCCOC)c(OCCOC)cc23)c1 [ERLOTINIB] | -8% | – | – | 42% | – | – | -1% | – | – | – | – | -10% | 13% | -5% | – | – | -7% |

Further lines, results first:

| inhibition [1] | inhibition [2] | inhibition [3] | inhibition [4] | inhibition [5] | inhibition [6] | inhibition [7] | inhibition [8] | inhibition [9] | inhibition [10] | inhibition [11] | inhibition [12] | inhibition [13] | inhibition [14] | inhibition [15] | inhibition [16] | inhibition [17] | SMILES |
| --- | --- | --- | --- | --- | --- | --- | --- | --- | --- | --- | --- | --- | --- | --- | --- | --- | --- |
| -4% | -1% | -2% | 9% | 3% | -4% | -1% | -3% | – | 2% | 8% | 9% | 8% | 0% | 43% | 7% | -8% | COc1ccc(C(=O)NCCN(C)C)cc1-c1cc2c(N[C@H](C)c3ccccc3)ncnc2s1 |
| 1% | 7% | – | 10% | 4% | 1% | 1% | 1% | – | 8% | 1% | 2% | 1% | 3% | 12% | 1% | 1% | COc1cc(CO)ccc1-c1cc2c(N[C@H](C)c3ccccc3)ncnc2s1 |
| -5% | 11% | -3% | 17% | 15% | 5% | 4% | 7% | -1% | 38% | 6% | 2% | 8% | -3% | 20% | 11% | – | COc1cc(CO)ccc1-c1cc2c(Nc3ccccc3)ncnc2s1 |
| – | 1% | 0% | 17% | 12% | 1% | 2% | 10% | – | 23% | 23% | -5% | 9% | -5% | 21% | 7% | -5% | CN(C)CCNC(=O)c1ccc(-c2cc3c(N[C@H](CO)c4ccccc4)ncnc3s2)cc1 |
| 3% | -7% | -6% | 12% | 3% | 0% | -8% | -7% | 8% | 6% | 7% | -8% | 9% | 6% | 10% | 21% | -4% | C[C@@H](Nc1ncnc2sc(-c3ccccc3C(N)=O)cc12)c1ccccc1 |
